What was measured:
[1] = biological target: T1, Enoyl-acyl-carrier protein reductase (Plasmodium falciparum, UniProt Q965D5); experiment: Inhibition of Plasmodium falciparum ENR
T1 sequence (Q965D5 whole entry): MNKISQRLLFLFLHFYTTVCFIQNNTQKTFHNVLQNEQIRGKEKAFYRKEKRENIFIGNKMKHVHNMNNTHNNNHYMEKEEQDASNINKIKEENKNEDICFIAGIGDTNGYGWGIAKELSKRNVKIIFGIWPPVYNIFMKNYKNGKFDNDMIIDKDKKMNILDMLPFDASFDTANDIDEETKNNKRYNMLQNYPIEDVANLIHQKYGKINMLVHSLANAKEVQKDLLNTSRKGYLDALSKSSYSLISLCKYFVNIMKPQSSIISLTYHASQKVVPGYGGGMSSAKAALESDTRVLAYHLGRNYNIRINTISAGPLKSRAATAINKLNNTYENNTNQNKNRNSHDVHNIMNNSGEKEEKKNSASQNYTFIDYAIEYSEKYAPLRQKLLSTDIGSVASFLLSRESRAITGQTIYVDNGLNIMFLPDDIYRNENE

[2] = biological target: T2, Enoyl-[acyl-carrier-protein] reductase [NADH] FabI (Escherichia coli K-12, UniProt P0AEK4); experiment: Inhibition of Escherichia coli ENR
T2 sequence (P0AEK4 whole entry): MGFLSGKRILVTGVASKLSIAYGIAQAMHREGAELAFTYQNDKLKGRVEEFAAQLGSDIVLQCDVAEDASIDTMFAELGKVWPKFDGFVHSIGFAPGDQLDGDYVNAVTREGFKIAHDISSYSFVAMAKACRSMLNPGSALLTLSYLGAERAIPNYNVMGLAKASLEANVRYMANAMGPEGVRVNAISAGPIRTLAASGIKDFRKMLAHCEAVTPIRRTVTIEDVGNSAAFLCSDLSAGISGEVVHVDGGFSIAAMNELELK

[3] = biological target: T1, Enoyl-acyl-carrier protein reductase; experiment: Inhibition of Plasmodium falciparum ENR using NADH substrate
[4] = biological target: T1, Enoyl-acyl-carrier protein reductase; experiment: Inhibition of Plasmodium falciparum ENR using crotonyl-CoA substrate
[5] = biological target: T1, Enoyl-acyl-carrier protein reductase; experiment: Inhibition of Plasmodium falciparum ENR in presence of triclosan
[6] = biological target: T1, Enoyl-acyl-carrier protein reductase; experiment: Inhibition of Plasmodium falciparum ENR in presence of ECG
[7] = biological target: T1, Enoyl-acyl-carrier protein reductase; experiment: Inhibition of Plasmodium falciparum ENR by fluorescence quenching in presence of EGCG
[8] = biological target: T1, Enoyl-acyl-carrier protein reductase; experiment: Inhibition of Plasmodium falciparum ENR by fluorescence quenching in presence of ECG
[9] = biological target: T1, Enoyl-acyl-carrier protein reductase; experiment: Inhibition of Plasmodium falciparum ENR by fluorescence quenching in presence of EGC
[10] = biological target: T1, Enoyl-acyl-carrier protein reductase; experiment: Inhibition of Plasmodium falciparum ENR by fluorescence quenching in presence of quercetin
[11] = biological target: T1, Enoyl-acyl-carrier protein reductase; experiment: Inhibition of Plasmodium falciparum ENR by fluorescence quenching in presence of butein
[12] = biological target: T1, Enoyl-acyl-carrier protein reductase; experiment: Inhibition of Plasmodium falciparum ENR in presence of EGC
[13] = biological target: T1, Enoyl-acyl-carrier protein reductase; experiment: Inhibition of Plasmodium falciparum ENR in presence of EGCG
[14] = biological target: T1, Enoyl-acyl-carrier protein reductase; experiment: Inhibition of Plasmodium falciparum ENR in presence of EGCG by dilution assay
[15] = biological target: T1, Enoyl-acyl-carrier protein reductase; experiment: Inhibition of Plasmodium falciparum ENR in presence of EGC by dilution assay
[16] = biological target: T1, Enoyl-acyl-carrier protein reductase; experiment: Inhibition of Plasmodium falciparum ENR in presence of ECG by dilution assay
[17] = biological target: T1, Enoyl-acyl-carrier protein reductase; experiment: Inhibition of Plasmodium falciparum ENR in presence of quercetin by dilution assay
[18] = biological target: T1, Enoyl-acyl-carrier protein reductase; experiment: Inhibition of Plasmodium falciparum ENR in presence of butein by dilution assay
[19] = biological target: T1, Enoyl-acyl-carrier protein reductase; experiment: Inhibition of Plasmodium falciparum ENR in presence of quercetin
[20] = biological target: T1, Enoyl-acyl-carrier protein reductase; experiment: Inhibition of Plasmodium falciparum ENR in presence of butein

Structure (SMILES) | IC50 [1] | IC50 [2] | Ki [3] | Ki [4] | Ki [5] | further results
O=C(/C=C/c1ccc(O)c(O)c1)c1ccc(O)cc1O [BUTEIN] | 12500 nM | 30 µM | 5500 nM | 2970 nM | 14 nM | –
O=C(O[C@@H]1Cc2c(O)cc(O)cc2O[C@@H]1c1ccc(O)c(O)c1)c1cc(O)c(O)c(O)c1 [EPICATECHIN GALLATE] | 500 nM | 10 µM | 291 nM | 102 nM | 16 nM | –
Oc1cc(O)c2c(c1)O[C@H](c1cc(O)c(O)c(O)c1)[C@H](O)C2 [EPIGALLOCATECHIN] | 7000 nM | > 100 µM | 3750 nM | 2000 nM | 17.6 nM | –
O=C(O[C@@H]1Cc2c(O)cc(O)cc2O[C@@H]1c1cc(O)c(O)c(O)c1)c1cc(O)c(O)c(O)c1 [EPIGALOCATECHIN GALLATE] | 250 nM | 15 µM | 186 nM | 79 nM | 8 nM | –
O=c1c(O)c(-c2ccc(O)c(O)c2)oc2cc(O)cc(O)c12 [QUERCETIN] | 2500 nM | 20 µM | 1090 nM | 473 nM | 22 nM | –
Oc1cc(Cl)ccc1Oc1ccc(Cl)cc1Cl [TRICLOSAN] | – | – | – | – | – | Ki [6]: 8 nM; Ki [7]: 7.29 nM; Ki [8]: 28.3 nM; Ki [9]: 52.7 nM; Ki [10]: 30.5 nM; Ki [11]: 71 nM; Ki [12]: 8.25 nM; Ki [13]: 1 nM; Ki [14]: 1.9 pM; Ki [15]: 0.109 nM; Ki [16]: 0.0521 nM; Ki [17]: 0.281 nM; Ki [18]: 0.798 nM; Ki [19]: 10 nM; Ki [20]: 13.7 nM

From ChEMBL document CHEMBL1141392, “Green tea catechins potentiate triclosan binding to enoyl-ACP reductase from Plasmodium falciparum (PfENR)” (J Med Chem, 2007)
